Experimental data from publication PMC11240924, “Isolation, Identification, and Biological Activities of a New Chlorin e6 Derivative” (International Journal of Molecular Sciences, 2024).

How the values were obtained:
MIA PaCa-2 = assay: MTT cytotoxicity (PDT and dark), MIA PaCa-2; type: cell-based, Human; conditions: Homo sapiens, light or radiation study, 3 h exposure, 660 nm laser 0.5 J/cm^2, MTT after 24 h
From the text: (§1) B16F10 (KCLB80008), MIA PaCa-2 (KCLB21420), PANC-1 (KCLB21469), HT-29 (KCLB30038), AsPC-1 (KCLB21682), and Raw 264.7 (KCLB40071) cells were procured from the Korean Cell Line Bank (KCLB, Seoul, Republic of Korea). AsPC-1 and RAW264.7 were thawed and maintained in RPMI-1640 media (Life Technologies corporation, Carlsbad, CA, USA) supplemented with 10% fetal bovine serum (Life Technologies corporation, USA) and 1% penicillin and streptomycin (Life Technologies corporation, USA), while MIA PaCa-2, PANC-1, HT-29, and B16F10 cell lines were cultured in DMEM (Life technologies corporation, USA) containing 10% fetal bovine serum and 1% penicillin and streptomycin. All the cells were cultured at 37 °C in a 5% CO2 incubator.
(§2) After seeding B16F10 or MIA PaCa-2 at a density of 5 × 10^3 cells/well and PANC-1, HT-29, or AsPC-1 at a density of 1 × 10^4 cells/well in 96-well plates, the cells were incubated overnight at 37 °C in a CO2 incubator. The cells were exposed to different doses of either chlorin e6 or rhodin g7 7^1-ethyl ester (0, 2.5, 5, 10, 20, 40, and 80 µM) for 3 h. After the incubation, the cells were either subjected to a 660 nm laser with a power density of 50 mW (0.5 J/cm^2) or not and were further incubated for 24 h at 37 °C. Moreover, the MTT assay was used to analyze the cell viability. The absorbance values of 540 nm were then measured using a microplate reader (Multiskan GO, Thermo Fisher Scientific, Oy, Ratastie 2, FI-01620 Vantaa, Finland).

[1] = MTT cytotoxicity (PDT and dark), MIA PaCa-2; type: cell-based, Human; conditions: human, MIA PaCa-2 cells, no illumination, MTT after 24 h
From the text: as §1, §2

MIA PaCa-2 cells = assay: Cellular uptake (plate reader and FOBI), MIA PaCa-2; type: cell-based, Human; conditions: 3 h; for fluorescence intensity of treated cells compared to control (uptake): MIA PaCa-2, 100 μΜ
Experimental: (§3) A quantitly of 5 × 10^5 of MIA PaCa-2 and 2 × 10^5 of BV2 cells per well were seeded in a 6-well plate and were treated with or without chlorin e6 or rhodin g7 7^1-ethyl ester (10 and 100 μΜ). After 3 h, the cells were harvested and washed twice with 1 × phosphate buffered saline (DPBS) to remove the remaining chlorin e6 or rhodin g7 7^1-ethyl ester from the culture media and cell surfaces. The cells from each well were resuspended in 1 mL of 1 × DPBS and measured using FOBI and a plate reader. chlorin e6 or rhodin g7 7^1-ethyl ester-treated cells were divided into triplicate wells of a black-walled 96-well plate, each containing 100 µL. The measurement was taken immediately after aliquoting using a Spark Multimode Microplate Reader (Tecan Trading AG, Männedorf, Switzerland) for spectroscopy. The fluorescence was measured using excitation and emission peaks of 405 nm and 500–800 nm. For the FOBI analysis, 700 µL of chlorin e6 or rhodin g7 7^1-ethyl ester-treated cells was added to the e-tubes, and bioimaging was performed immediately using the fluorescence-labeled organism bioimaging instrument (FOBI) system (Cellgentek, Daejeon, Republic of Korea). Each image was exposed for 0.3 s, with a 405 nm wavelength LED, and an emmission light of 502 nm. The results were further quantitatively measured using the “NEOimage FOBI” software.

[2] = Singlet oxygen photogeneration (DPBF quenching); conditions: for change of DPBF absorbance at higher doses: 5 and 10 µM
Experimental: Singlet oxygen photoregeneration was carried out using 1, 3-diphenylisobenzofuran (DPBF) in DMSO. DPBF is a selective ^1O2 acceptor that reacts with ^1O2. The sample solutions of DPBF (50 μM) which contained DPBF only (50 μM, as a control), MB (1, 5, and 10 μM), chlorin e6 (1, 5, and 10 μM), and rhodin g7 7^1-ethyl ester (1, 5, and 10 μM) were prepared under dark conditions. All of the samples were placed in a 96-well plate, which was covered with aluminum foil. The samples were then irradiated (660 nm, 50 mW, 0.5 J/cm^2) for 1 min and 40 s, and after irradiation, the visible spectra of the sample solutions were measured spectrophotometrically. The normalized absorbance of DPBF at 418 nm was measured in these samples. The ^1O2 photo-generation activities of MB, chlorin e6, and rhodin g7 7^1-ethyl ester can be compared with the different absorbance decay of each sample relative to the DPBF control sample.

[3] = MTT cytotoxicity (PDT and dark), B16F10; type: cell-based, Murine; conditions: mouse, B16F10 cells, no illumination, MTT after 24 h
From the text: as §1, §2

B16F10 = assay: MTT cytotoxicity (PDT and dark), B16F10; type: cell-based, Murine; conditions: Mus musculus, B16-F10, light or radiation study, 3 h exposure, 660 nm laser 0.5 J/cm^2, MTT after 24 h
From the text: as §1, §2

[4] = MTT cytotoxicity (PDT and dark), RAW264.7 normal cell line; type: cell-based, Murine; conditions: mouse, RAW264.7 cells (normal macrophage), RAW264.7 normal macrophage
From the text: as §1, §2

BV2 cells = assay: Cellular uptake (plate reader and FOBI), BV2; type: cell-based; conditions: 3 h; for fluorescence intensity of treated cells compared to control (uptake): BV2, 100 μΜ
Experimental: as §3

MIA-PaCa-2 cells = assay: Detection of ROS with DCFH-DA after PDT; type: cell-based, Human; conditions: for ROS level after PDT (DCFH-DA): MIA-PaCa-2, 1, 5, 10, 20, 40, and 80 μM, 3 h, laser
Experimental: MIA-PaCa-2 cells (density: 5 × 10^3 cells/well) were seeded onto 96-well plates and incubated in a complete medium for 24 h at 37 °C. Then, the medium was replaced with a fresh culture medium containing chlorin e6 or rhodin g7 7^1-ethyl ester at different concentrations (1, 5, 10, 20, 40, and 80 μM) and then incubated for 3 h at 37 °C. After incubation, the cells were washed three times with PBS, and the cells were irradiated using a 630 nm laser at a power of 100 mW/cm^2 for 300 s. After irradiation, a fresh culture medium containing 20 μM dichlorodihydrofluorescin diacetate (DCFH-DA) was added, and the cells were incubated for another 20 min. Fluorescence detection of DCFH-DA was performed via the fluorescence microplate reader using the Spark Multimode Microplate Reader (Tecan Trading AG, Männedorf, Switzerland).

[5] = MTT cytotoxicity (PDT and dark), HT29; type: cell-based, Human; conditions: human, HT-29 cells, no illumination, MTT after 24 h
From the text: as §1, §2

HT29 = assay: MTT cytotoxicity (PDT and dark), HT29; type: cell-based, Human; conditions: Homo sapiens, HT-29, light or radiation study, 3 h exposure, 660 nm laser 0.5 J/cm^2, MTT after 24 h
From the text: as §1, §2

[6] = 660 nm laser 0.5 J/cm^2, MTT after 24 h, read-out: IC50, PDT cytotoxicity
[7] = no illumination, MTT after 24 h, read-out: IC50, dark cytotoxicity

C=Cc1c(C)c2cc3nc(c(CC(=O)O)c4[nH]c(cc5nc(cc1[nH]2)C(C)=C5CC)c(C)c4C(=O)O)[C@@H](CCC(=O)O)[C@@H]3C [chlorin e6]
IC50 (MIA PaCa-2): 23.3 µM | IC50 [1]: 430 µM | fluorescence intensity of treated cells compared to control (uptake) (MIA PaCa-2 cells): significant increase in fluorescence intensity | change of DPBF absorbance at higher doses [2]: large increase in DPBF absorbance | IC50 [3]: 556 µM | IC50 (B16F10): 33.6 µM | IC50 [4, 6]: 45.4 µM | IC50 [4, 7]: 456 µM | fluorescence intensity of treated cells compared to control (uptake) (BV2 cells): significant increase in fluorescence intensity | ROS level after PDT (DCFH-DA) (MIA-PaCa-2 cells): dose-dependent increase in ROS | IC50 [5]: 543 µM | IC50 (HT29): 28.1 µM

C=Cc1c(C)c2cc3nc(c(CC(=O)O)c4[nH]c(cc5nc(cc1[nH]2)C(C(=O)OCC)=C5CC)c(C)c4C(=O)O)[C@@H](CCC(=O)O)[C@@H]3C [rhodin g7 7^1-ethyl ester]
IC50 (MIA PaCa-2): 7.6 µM | IC50 [1]: 161 µM | fluorescence intensity of treated cells compared to control (uptake) (MIA PaCa-2 cells): significant increase in fluorescence intensity | fluorescence intensity relative to chlorin e6 (uptake) (MIA PaCa-2 cells; MIA PaCa-2, FOBI system, 10 μΜ): 1.02 times | fluorescence intensity relative to chlorin e6 (uptake) (MIA PaCa-2 cells; MIA PaCa-2, FOBI system, 100 μΜ): 1.3 times | fluorescence intensity relative to chlorin e6 (uptake) (MIA PaCa-2 cells; MIA PaCa-2, plate reader, 10 μΜ): 3 times | fluorescence intensity relative to chlorin e6 (uptake) (MIA PaCa-2 cells; MIA PaCa-2, plate reader, 100 μΜ): 1.4 times | more singlet oxygen compared to chlorin e6 alone ([2]; 1 µM): 11.12% | change of DPBF absorbance at higher doses [2]: large increase in DPBF absorbance | IC50 [3]: 262 µM | IC50 (B16F10): 12.3 µM | IC50 [4, 6]: 55.2 µM | IC50 [4, 7]: 466 µM | fluorescence intensity of treated cells compared to control (uptake) (BV2 cells): significant increase in fluorescence intensity | fluorescence intensity relative to chlorin e6 (uptake) (BV2 cells; BV2, FOBI system, 10 μΜ): 1.1 times | fluorescence intensity relative to chlorin e6 (uptake) (BV2 cells; BV2, FOBI system, 100 μΜ): 1.4 times | fluorescence intensity relative to chlorin e6 (uptake) (BV2 cells; BV2, plate reader, 10 μΜ): 2.2 times | fluorescence intensity relative to chlorin e6 (uptake) (BV2 cells; BV2, plate reader, 100 μΜ): 2 times | ROS level after PDT (DCFH-DA) (MIA-PaCa-2 cells): dose-dependent increase in ROS | ROS production compared to chlorin e6-PDT (MIA-PaCa-2 cells; MIA-PaCa-2, all concentrations (1-80 μM)): likely to produce more ROS than chlorin e6-PDT | IC50 [5]: 223 µM | IC50 (HT29): 30.1 µM
